Entries after “also recorded” stand apart in the source; their conditions may differ. Peptide text beside a SMILES is read from it. * marks the point of attachment. Cbz = O=C(OCc1ccccc1)*; OtBu = CC(C)(C)O*

We go through 3 molecules from patent US7868139B2, “Compositions and methods for the identification and treatment of immune-mediated inflammatory diseases” (UAB Research Foundation, priority 2006, dated 2011).

The subject of one assay is NF-κB p65. In words: Measurement of nuclear NF-κB p65 in BMDC. In kind it is cell-based, mouse. To be noted: 1 μg/ml LPS plus 1 μM PSI for 60 min, compared to control. As to the method: Measurement of nuclear NF-κB—BMDC were treated with media alone, 1 μg/ml LPS, or LPS plus 1 μM PSI for 60 min. The nuclear extracts were made by using TransFactor Extraction Kit (Clontech Laboratories, Inc., Palo Alto, Calif.) based on the protocol recommended by the manufacturer. NF-κB p65 was measured by using Mercury TransFactor Kits (Clontech Labs, Inc., Palo Alto, Calif.) according to manufacturer's protocol.

A further assay concerns BMDC. Kind of assay: Maturation of LPS-stimulated BMDC (costimulatory molecules, cytokines). In kind it is cell-based, mouse. To be noted: PSI-pulsed BMDC stimulated with LPS.
The test system of assay [1] is DO11.10.RAG2−/− CD4^+ T cells. Kind of assay: T cell proliferation assay with PSI-pretreated, OVA peptide-pulsed BMDC. In kind it is cell-based, mouse. The settings on record: BMDC pretreated with 1 μM PSI 4 hrs, then OVA peptide 20 hrs; p<0.005. The method, then:
Generation of PSI-APC Treg cells—BMDC generated from BALB/c mice were treated with 1 μM PSI dissolved in DMSO for 4 hrs and then 5 μg/ml OVA peptide for additional 20 hrs at 1×10^6/ml. After washing twice, the pretreated BMDC were added at 1×10^5/ml into cultures of 1×10^6 freshly isolated CD4^+ T cells from DO11.10.RAG2^−/− mice. Seven days later, the CD4^+ T cells were re-isolated with CD4-magnet beads (Pharmingen, San Diego, Calif.) and used to test for regulatory activity (PSI-APC Treg). Freshly isolated CD4^+ T cells from DO11.10.RAG2^−/− mice were also cultured with 5 μg/ml OVA peptide-pulsed BMDC as control, and used as memory T cells (Them).
After 4 d of incubation, 0.5 μCi of ^3H-thymidine was added to each culture for the last 18 hr of the incubation period. The cells were harvested on glass fiber filters on a PHD cell harvested (Cambridge Technology, Watertown, Mass.) and proliferation was assessed as the amount of incorporation of ^3H-thymidine into cell DNA, as measured by beta scintillation counting of the harvested samples. Data are expressed as CPM±SD.

Another assay has as its system DO11.10 CD4^+ T cells. In words: T cell cytokine assays (ELISA of culture supernatants). To be noted: PSI-pretreated, OVA peptide-pulsed BMDC. In kind it is cell-based, mouse. The method, then:
[…] The culture supernatants (SN) were collected at different times and pooled together for assay. SN collected after 24 hr of culture were used for IL-2 assay and SN collected at 72 h of culture were used for IL-10, IL-4, and IFNγ assays. The cytokine content in SN was determined by ELISA as previously described by Cong et al. (Cong et al., CD4+ T cells reactive to enteric bacterial antigens in spontaneously colitic C3H/HeJBir mice: increased T helper cell type 1 response and ability to transfer disease. Journal of Experimental Medicine 187:855 (1998).

A further assay relates to mice. To be noted: mouse, in vivo.
For another assay, the system named is Splenic CD4^+ T cells. Kind of assay: Antigen-specific proliferation of splenic CD4+ T cells (3H-thymidine). The format is cell-based, mouse.

As for `CC[C@H](C)[C@H](NC(=O)OCc1ccccc1)C(=O)N[C@@H](CCC(=O)OC(C)(C)C)C(=O)N[C@@H](C)C(=O)N[C@H](C=O)CC(C)C` [PSI, benzyloxycarbonyl-isoleucyl-glutamyl(O-tert-butyl)-alanyl-leucinal] (Cbz-IE(OtBu)AL-aldehyde), the “NF-κB p65 in nuclear extracts” value with NF-κB p65 is “inhibited BMDC NF-κβ activation; also recorded: reduced levels of NF-κB p65”. Further, in the assay with BMDC, the “IL-10 production by BMDC” value was “not affected”; the IL-12p70 cytokine production result is given as “did not upregulate”; the “expression of costimulatory molecules CD40, CD86 and MHC class II” value is “did not upregulate”. In assay [1], the “naïve CD4+ T cell proliferation to OVA peptide-pulsed BMDC” value was “inhibited T cell proliferation and cytokine production; also recorded: greatly decreased”. Also, in the assay on DO11.10 CD4^+ T cells, the “T cell IL-4 production” value is given as “no IL-4 production”, the “reduction of T cell IFNα production” value came to 81%, the “reduction of T cell IL-2 production” value is 89% and the “reduction of T cell IL-10 production” value is reported as 79%.
As for cholera toxin [CT], in the assay on mice, the “intestinal IgA response to OVA” value is reported as “strong intestinal IgA response” and the “serum IgG response to OVA” value was “strong serum IgG response to OVA”.

B1: ovalbumin (protein, UniProt P01012 2-386, looked up)
Ovalbumin: GSIGAASMEFCFDVFKELKVHHANENIFYCPIAIMSALAMVYLGAKDSTRTQINKVVRFDKLPGFGDSIEAQCGTSVNVHSSLRDILNQITKPNDVYSFSLASRLYAEERYPILPEYLQCVKELYRGGLEPINFQTAADQARELINSWVESQTNGIIRNVLQPSSVDSQTAMVLVNAIVFKGLWEKAFKDEDTQAMPFRVTEQESKPVQMMYQIGLFRVASMASEKMKILELPFASGTMSMLVLLPDEVSGLEQLESIINFEKLTEWTSSNVMEERKIKVYLPRMKMEEKYNLTSVLMAMGITDVFSSSANLSGISSAESLKISQAVHAAHAEINEAGREVVGSAEAGVDAASVSEEFRADHPFLFCIKHIATNAVLFFGRCVSP
notes: internal positive control antigen; exogenous foreign neoantigen
Turning to B1, the median stimulation index in the assay with Splenic CD4^+ T cells (post immunization (day 35), 50 μg/ml antigen) is recorded as 17.1. Further, the “T cell proliferative response, stimulation index (SI)” value with Splenic CD4^+ T cells (unimmunized mice) is listed as below 3. Further, in the assay with mice, the “intestinal IgA response to OVA” value is given as “virtually no intestinal IgA to OVA” and the “serum IgG response to OVA” value is “no serum IgG response to OVA”.
